Reference: the NIST ThermoML archive (doi:10.1021/je100300s)

Experiment: xn = mol fraction of the nth substance listed
Details: 101 kPa, Liquid

CC(O)CN (centres undefined) [1-amino-2-propanol] + O
Details	mass density [kg/m3]	viscosity [mPa·s]
298.15 K, x1 = 0.05	999.9	2.11
298.15 K, x1 = 0.07	1000.35	2.696
298.15 K, x1 = 0.0986	1002.43	3.902
298.15 K, x1 = 0.1993	1004.57	9.7
298.15 K, x1 = 0.3003	999.91	15.54
298.15 K, x1 = 0.3955	992.94	22.19
298.15 K, x1 = 0.4929	985.82	26.76
298.15 K, x1 = 0.5995	978.02	29.01
298.15 K, x1 = 0.7002	971.66	29.99
298.15 K, x1 = 0.8006	965.96	30.4
298.15 K, x1 = 0.8992	961.08	28.55
298.15 K, x1 = 1	956.51	26.68
303.15 K, x1 = 0.05	997.07	1.856
303.15 K, x1 = 0.07	998.1	2.282
303.15 K, x1 = 0.0986	999.83	3.248
303.15 K, x1 = 0.1993	1001.03	7.671
303.15 K, x1 = 0.3003	996.08	12.04
303.15 K, x1 = 0.3955	989.08	16.82
303.15 K, x1 = 0.4929	981.92	19.5
303.15 K, x1 = 0.5995	974.2	21.38
303.15 K, x1 = 0.7002	967.74	22.78
303.15 K, x1 = 0.8006	962.01	22.97
303.15 K, x1 = 0.8992	957.12	22.19
303.15 K, x1 = 1	952.52	20.31
313.15 K, x1 = 0.05	992.68	1.431
313.15 K, x1 = 0.07	993.09	1.785
313.15 K, x1 = 0.0986	994.25	2.359
313.15 K, x1 = 0.1993	993.72	5.102
313.15 K, x1 = 0.3003	988.29	7.551
313.15 K, x1 = 0.3955	981.19	9.95
313.15 K, x1 = 0.4929	973.92	11.79
313.15 K, x1 = 0.5995	966.3	12.85
313.15 K, x1 = 0.7002	959.83	13.14
313.15 K, x1 = 0.8006	954.01	13.56
313.15 K, x1 = 0.8992	949.12	12.83
313.15 K, x1 = 1	944.42	12.51
323.15 K, x1 = 0.05	987.66	1.136
323.15 K, x1 = 0.07	987.41	1.393
323.15 K, x1 = 0.0986	988.2	1.561
323.15 K, x1 = 0.1993	986.18	3.582
323.15 K, x1 = 0.3003	980.32	5.59
323.15 K, x1 = 0.3955	973.13	6.649
323.15 K, x1 = 0.4929	965.84	7.64
323.15 K, x1 = 0.5995	958.38	7.994
323.15 K, x1 = 0.7002	951.77	8.473
323.15 K, x1 = 0.8006	945.87	8.748
323.15 K, x1 = 0.8992	940.96	8.041
323.15 K, x1 = 1	936.19	7.543
333.15 K, x1 = 0.05	982.03	0.929
333.15 K, x1 = 0.07	981.49	1.118
333.15 K, x1 = 0.0986	981.57	1.222
333.15 K, x1 = 0.1993	978.5	2.627
333.15 K, x1 = 0.3003	972.15	3.944
333.15 K, x1 = 0.3955	964.88	4.988
333.15 K, x1 = 0.4929	957.68	5.701
333.15 K, x1 = 0.5995	950.15	6.163
333.15 K, x1 = 0.7002	943.53	5.753
333.15 K, x1 = 0.8006	937.62	6.023
333.15 K, x1 = 0.8992	932.66	5.483
333.15 K, x1 = 1	927.84	5.22
343.15 K, x1 = 0.05	975.62	0.775
343.15 K, x1 = 0.07	974.99	0.922
343.15 K, x1 = 0.0986	973.44	0.993
343.15 K, x1 = 0.1993	970.55	2.088
343.15 K, x1 = 0.3003	963.77	2.904
343.15 K, x1 = 0.3955	956.45	3.619
343.15 K, x1 = 0.4929	949.25	4.075
343.15 K, x1 = 0.5995	941.71	4.371
343.15 K, x1 = 0.7002	935.09	4.565
343.15 K, x1 = 0.8006	929.19	4.467
343.15 K, x1 = 0.8992	924.2	3.927
343.15 K, x1 = 1	919.37	3.77
